One compound from patent publication US7449495B2, “Retinoid derivatives with antiangiogenic, antitumoral and proapoptotic activities” (Sigma-Tau Industrie Farmaceutiche Riunite S.p.A., priority 2001, dated 2008) can be followed below.

Like-named read-outs stand apart in the source and are kept apart here.

For series [1], the system named is NB4 acute promyelocytic leukaemia cell line. Description: Cytotoxicity test (sulphorodamine B), NB4. Format: cell-based, human. Particulars: 24 h incubation, survival 48 h after removal, read-out: IC50. The text has this: To carry out the cytotoxicity tests, two acute promyelocytic leukaemia (APL) cell lines were used. • 1. Cell line NB4, carrying the chromosomal translocation t(15; 17) which generates the fusion protein PML/RARα. This cell line is extremely sensitive to the differentiating action of pharmaceutical doses of ATRA (10^−7-10^−6 M); • 2. Cell line HL60, which responds to ATRA less sensitively with respect to cell line NB4.
These cell lines were maintained in RPMI 1640 containing 10% foetal calf serum (FCS) and 1% glutamine.
The cytotoxicity tests were carried out using NB4 or HL-60 cells in suspension (10000/well). The cells were seeded in a volume of 250 μl in 96 well plates and incubated for 24 hours at 37° C. The following day, test compound ST 1926 [(2E)-3-[3′-(1-Adamantyl)-4′-hydroxy[1,1′-biphenyl]-4-yl]-2-propenoate/ic acid] was added at increasing concentrations, and the cells were incubated for a further 24 hours at 37° C. in a humidified atmosphere containing 5% CO2. On the 3rd day, the medium was removed by centrifuging the plate at 1600×g for 10 min and the supernatant decanted. 250 μl of PBS were added; then the plates were centrifuged again at 1600×g for 10 minutes and the supernatant decanted. 200 μl/well of RPMI 1640 medium containing 10% FCS were added and the plates were incubated at 37° C. for a further 48 hours. On the 5th day, the plates were again centrifuged at 1600×g for 10 minutes, and the medium was removed by upturning the plates, 200 μl of PBS and 50 μl of cold, 80% TCA were added. The plates were then left to incubate on ice for at least 1 hour. The TCA was removed by upturning; the plates were washed three times by immersion in distilled water and dried first on paper, then with a jet of hot air. To all wells were added 200 μl of 0.4% sulphorodamine B in 1% acetic acid. The plates were incubated at room temperature for a further 30 minutes. […] The optical density was measured using a Multiskan spectrophotometer at 540 nm.
(§1) Cell survival was determined by incubation with ST1926 for 24 hours, 48 hours after the removal of the compound. […]

The test system of series [2] is no small cell lung carcinoma A431. Description: Cytotoxicity test (sulphorodamine B), A431. Format: cell-based. Particulars: Homo sapiens, A-431, 24 h incubation, survival 48 h after removal.
Description: (§2) Different cell lines deriving from solid tumors were also used. • 1. Human prostate carcinoma PC3 and DU145. These cell lines were maintained in RPMI 1640 medium containing 10% FCS, 1% sodium pyruvate and 1% glutamine; • 2. Human colon adenocarcinoma LoVo. This cell line was maintained in HAM's F-12 medium, containing 10% FCS and 1% glutamine. • 3. Human ovarian carcinoma such as A2780 and A2780/Dx, sensitive and resistant to drugs, respectively (doxorubicin, taxol, etoposide, vincristine); IGROV-1 and IGROV-1/Pt, sensitive and resistant to platinum-based chemotherapy, respectively, were maintained in RPMI 1640 medium containing 10% FCS, 1% sodium pyruvate and 1% glutamine; • 4. Human melanoma MeWo and MeS 2.21, glioblastoma GBM, no small cell lung carcinomas A431, NCI—H460, osteosarcomas SAOS and U2OS were maintained in RPMI 1640 medium containing 10% FCS, 1% sodium pyruvate and 1% glutamine.
(§3) The cytotoxicity tests were carried out using NB4 or HL-60 cells in suspension (10000/well). The cells were seeded in a volume of 250 μl in 96 well plates and incubated for 24 hours at 37° C. […] The optical density was measured using a Multiskan spectrophotometer at 540 nm. […]
as §1

The next series concerns osteosarcoma SAOS. Description: Cytotoxicity test (sulphorodamine B), SAOS. Type of series: cell-based. Particulars: Homo sapiens, 24 h incubation, survival 48 h after removal.
Description: as §2, §3, §1

Series [3] has as its system human no small cell lung carcinoma NCI-H460. Description: Antitumoral activity in human no small cell lung carcinoma model NCI-H460. Particulars: NCI-H460, 15 mg/kg po. Type of series: in vivo. As for the experimental part:
The ST1926 solution was prepared immediately before use and solubilised in cremophor:ethanol 1:1 and subsequently diluted 1:4 in buffered saline solution. The animal treatments were administered in a volume of 10 ml/kg. […] Measurements of tumor dimensions were performed using a digital calliper (Vernier Caliper) twice weekly, from the time in which the mass was measurable. The tumor mass was evaluated from the size of the two principal dimensions (length and breadth), expressed in mm, applying the formula (length×breadth^2)/2, that is, the tumor volume in mm3. For each experimental group, the percentage of tumor volume inhibition was calculated (TVI %), with respect to the control, namely (100−(T/C %). TVI was evaluated 2 days after the final administration of ST1926.
A comparison between the TVI values obtained for each group was performed using the non parametric Mann Whitney test for non-paired data, using the Instat software from GraphPad inc.

Broadly, the IC50 is the concentration needed to halve the response being measured. Turning to `O=C(O)/C=C/c1ccc(-c2ccc(O)c(C34CC5CC(CC(C5)C3)C4)c2)cc1` [ST1926, E-4-(3-(1-adamantyl)-4-hydroxyphenyl)cinnamic acid], the IC50 worked out at 20 nM in series [1], 22 nM in series [1] (Homo sapiens), 250 nM in series [2] and 250 nM with osteosarcoma SAOS. Further, the “BWL % Max” value stood at 4% in series [3] (qdx3x3w), 14% in series [3] (qdx4x3w) and 4% in series [3] (qdx5x3w). The Lethality in series [3] (qdx3x3w), in series [3] (qdx4x3w) and in series [3] (qdx5x3w) was 0/8 in each case. Moreover, the “TVI % ± SE” value is “*52 ± 7%” in series [3] (qdx3x3w), “**38 ± 8%” in series [3] (qdx4x3w) and “*40 ± 2%” in series [3] (qdx5x3w).
